pIC50: −log10 of the molar value.
Key:
[1] = target: T1, Tau (Homo sapiens, UniProt P10636); test: Tau aggregation inhibition in Tau-BiFC cell model (Forskolin-induced); format: cell-based
T1 construct: BiFC fluorescent-protein fragments (two complementary halves on two tau copies); expressed in transfected cells
Description: (§1) To screen for new tau aggregation inhibitors, a Tau-BiFC cell model that facilitates observation of tau oligomer formation in living cells was used. Tau-BiFC cells were dispensed into a 384-well plate, and the next day, the compounds prepared according to Examples 1 to 46 were treated at concentrations of 1, 3, and 10 µM, respectively, together with Forskolin (treatment concentration 30 µM), which is a compound that induces tau aggregation by activating the tau phosphorylation enzyme PKA. After 48 hours, nuclei within cells were stained using Hoechst (treatment concentration 2 µg/mL), and BiFC fluorescence intensity was automatically quantified using Operetta (Perkin Elmer) to count the stained nuclei in each well from the entire plate. The group treated only with Forskolin, which induces tau aggregation, was set as the reference point with 100% tau aggregation state, and the effect was confirmed by the formula "BiFC fluorescence intensity by the compounds synthesized according to the Examples of the disclosure/(fluorescence intensity of the control group treated only with Forskolin that induces tau aggregation - fluorescence intensity of the untreated control group) × 100". In addition, the degree of cytotoxicity induced by the newly synthesized compounds was also calculated using the formula "(number of stained nuclei in the compound-treated group/number of stained nuclei in the Forskolin-treated group) × 100", with the group treated only with Forskolin as the reference point at 100% viability. From the treatment results, substances that inhibit intracellular tau aggregation were identified through screening from a series of candidates based on the criteria of 70% or more tau aggregation inhibition and 100% cell viability at a compound treatment concentration of 10 µM.
(§2) To confirm the tau aggregation inhibitory effect according to the concentration of the compounds screened in Experimental Example 1, the screened compounds were treated to Tau-BiFC cells at concentrations of 0.03, 0.1, 0.3, 1, 3, 10, and 30 µM, respectively, together with Forskolin (treatment concentration 30 µM), which is a tau aggregation-inducing substance. After 48 hours, cell images were examined to analyze the tau aggregation reaction and degree of cytotoxicity. The IC50 and toxicity of the compounds were analyzed by nonlinear regression analysis using Prism software (GraphPad). The calculated results for representative compounds are shown in Table 3 below: Tau aggregation inhibitory effect and cell viability of novel compounds.

[2] = test system: Tau-BiFC cells; test: Cell viability (stained nuclei count) in Tau-BiFC cells; format: cell-based; conditions: @10 µM; Tau-BiFC cell line; Forskolin-only group = 100%
Description: as §1, §2

[3] = target: T2, TDP-43 protein (Homo sapiens, UniProt Q13148); test: TDP-43 aggregation inhibition in TDP-43-BiFC cell model (Forskolin-induced); format: cell-based; conditions: read-out: TDP-43 protein aggregation inhibitory effect: Aggregation inhibitory effect (%) (@3 uM)
T2 construct: BiFC fluorescent-protein fragments (two complementary halves); expressed in transfected cells
T2 sequence (Q13148 whole entry, the tested form may be a part): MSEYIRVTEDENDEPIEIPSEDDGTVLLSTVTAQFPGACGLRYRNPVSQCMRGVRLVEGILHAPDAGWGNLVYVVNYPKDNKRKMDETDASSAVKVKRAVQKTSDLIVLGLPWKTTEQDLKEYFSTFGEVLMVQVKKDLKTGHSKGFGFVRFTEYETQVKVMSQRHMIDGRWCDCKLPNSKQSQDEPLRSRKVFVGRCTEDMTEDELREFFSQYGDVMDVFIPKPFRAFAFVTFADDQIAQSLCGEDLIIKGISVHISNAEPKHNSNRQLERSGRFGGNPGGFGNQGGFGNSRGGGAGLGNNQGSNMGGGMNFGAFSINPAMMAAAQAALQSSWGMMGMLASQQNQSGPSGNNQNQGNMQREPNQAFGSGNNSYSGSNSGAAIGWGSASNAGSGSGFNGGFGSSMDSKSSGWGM
Description: (§3) To screen for new TDP-43 aggregation inhibitors, a TDP-43-BiFC cell model that facilitates observation of TDP-43 aggregate formation in living cells was used. Specifically, TDP-43-BiFC cells were dispensed into a 384-well plate, and the next day, the compounds prepared according to Examples 1 to 46 were treated at concentrations of 3 and 10 µM, respectively, together with Forskolin (treatment concentration 30 µM), which is a compound that induces TDP-43 aggregation by activating the phosphorylation enzyme PKA. After 48 hours, nuclei within cells were stained using Hoechst (treatment concentration 1 µg/mL), and BiFC fluorescence intensity was automatically quantified using Operetta (PerkinElmer) to count the stained nuclei in each well from the entire plate. The group treated only with Forskolin, which induces TDP-43 aggregation, was set as the reference point with 100% TDP-43 aggregation state, and the effect was confirmed by the formula "(BiFC fluorescence intensity by the compounds synthesized according to the Examples of the disclosure - fluorescence intensity of the untreated control group)/(fluorescence intensity of the control group treated only with Forskolin that induces TDP-43 aggregation - fluorescence intensity of the untreated control group) × 100". In addition, the degree of cytotoxicity induced by the newly synthesized compounds was also calculated using the formula "(number of stained nuclei in the compound-treated group/number of stained nuclei in the Forskolin-treated group) × 100", with the group treated only with Forskolin as the reference point at 100% viability. From the treatment results, substances that inhibit intracellular TDP-43 aggregation were identified through screening from a series of candidates based on the criteria of 80% or more TDP-43 aggregation inhibition and 60% cell viability at a compound treatment concentration of 3 µM.
(§4) Furthermore, to confirm the TDP-43 aggregation inhibitory effect according to the concentration of the compounds screened in Experimental Example 3, the screened compounds were treated to […] at concentrations of 0.003, 0.01, 0.03, 0.1, 0.3, 1, 3, and 10 µM, respectively, together with Forskolin (treatment concentration 30 µM), which is a TDP-43 aggregation-inducing substance. After 48 hours, cell images were examined to analyze the TDP-43 aggregation reaction and degree of cytotoxicity. The IC50 and toxicity of the compounds were analyzed by nonlinear regression analysis using Prism software (GraphPad). The calculated results for representative compounds are shown in Table 4 below: TDP-43 protein aggregation inhibitory effect and cell viability of novel compounds.

[4] = test system: TDP-43 BiFC cells; test: Cell viability (stained nuclei count) in TDP-43-BiFC cells; format: cell-based; conditions: Forskolin-only group = 100%
Description: as §3, §4

[5] = Liver microsomal stability, human; format: in vitro ADME; conditions: 1 µM compound; 0.5 mg/mL microsomes; NADPH; 30 minutes at 37°C
Description: (§5) Liver microsomal stability by the compounds prepared according to Examples 1 to 46 was confirmed. Specifically, four types of liver microsomes (human, dog, rat, and mouse each at 0.5 mg/mL), 0.1 M phosphate buffer solution (pH 7.4), and the compounds at 1 µM concentration were added and pre-incubated at 37°C for 5 minutes, and then NADPH generation system solution was added and incubated at 37°C for an additional 30 minutes. Thereafter, an acetonitrile solution containing an internal standard (chloropropamide) was added to terminate the reaction, and after centrifugation for 5 minutes (14,000 rpm, 4°C), the supernatant was injected into an LC-MS/MS system to analyze the substrate drug, thereby evaluating the metabolic stability of 8 compounds.
(§6) The amount of remaining substrate through the reaction was analyzed using a Shimadzu Nexera XR system and TSQ vantage (Thermo). A Kinetex XB-C18 (2.1 × 100 mm, 2.6 µm, particle size; Phenomenex, USA) was used as the HPLC column, and (A) distilled water containing 0.1% formic acid and (B) acetonitrile containing 0.1% formic acid were used as mobile phases. Analyst software (version 1.6.3) and Xcalibur (version 1.6.1) were used for data analysis. The calculated results are shown in Table 5 below: Liver microsomal stability data of novel compounds from […] (human, rat, and mouse).

[6] = Liver microsomal stability, rat; format: in vitro ADME; conditions: 1 µM compound; 0.5 mg/mL microsomes; NADPH; 30 minutes at 37°C
Description: as §5, §6

[7] = Liver microsomal stability, mouse; format: in vitro ADME; conditions: 1 µM compound; 0.5 mg/mL microsomes; NADPH; 30 minutes at 37°C
Description: as §5, §6

[8] = target: T3, CYP1A2 (Homo sapiens, UniProt P05177); test: CYP isoenzyme activity inhibition in human liver microsomes, CYP1A2; format: in vitro ADME; conditions: 10 µM compound; human liver microsomes 0.25 mg/mL; relative to control without compound
T3 construct: human liver microsomes (0.25 mg/mL); from tissue; host or cells: human liver microsomes
T3 sequence (P05177 1-516): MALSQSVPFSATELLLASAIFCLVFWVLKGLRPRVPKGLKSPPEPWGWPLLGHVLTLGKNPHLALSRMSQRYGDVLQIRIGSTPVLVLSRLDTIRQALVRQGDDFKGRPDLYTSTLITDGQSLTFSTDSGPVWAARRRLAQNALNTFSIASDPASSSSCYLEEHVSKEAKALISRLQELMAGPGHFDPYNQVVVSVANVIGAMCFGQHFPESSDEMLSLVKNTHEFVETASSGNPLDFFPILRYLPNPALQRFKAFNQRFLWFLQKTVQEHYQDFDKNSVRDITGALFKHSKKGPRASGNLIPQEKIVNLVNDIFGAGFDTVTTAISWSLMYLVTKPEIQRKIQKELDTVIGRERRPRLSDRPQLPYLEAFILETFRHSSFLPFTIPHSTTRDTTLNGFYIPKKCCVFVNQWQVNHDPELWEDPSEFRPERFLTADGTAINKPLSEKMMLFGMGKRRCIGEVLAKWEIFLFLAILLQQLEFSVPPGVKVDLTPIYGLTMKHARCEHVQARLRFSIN
Description: (§7) The CYP isoenzyme activity inhibitory effect by the compounds prepared according to Examples 1 to 46 was confirmed. Specifically, human liver microsomes (0.25 mg/mL), 0.1 M phosphate buffer solution (pH 7.4), a substrate drug cocktail of five drug metabolizing enzymes (Phenacetin 50 µM, Diclofenac 10 µM, S-mephenytoin 100 µM, Dextromethorphan 5 µM, and Midazolam 2.5 µM), and the compounds were added at concentrations of 0 or 10 µM, respectively, and pre-incubated at 37°C for 5 minutes, and then NADPH generation system solution was added and incubated at 37°C for an additional 15 minutes. Thereafter, an acetonitrile solution containing an internal standard (Terfenadine) was added to terminate the reaction, and after centrifugation for 5 minutes (14,000 rpm, 4°C), the supernatant was injected into an LC-MS/MS system to simultaneously analyze the metabolites of the substrate drugs, thereby evaluating the drug metabolizing enzyme inhibitory activity.
(§8) The metabolites of each CYP isoenzyme marker drug generated through the reaction were analyzed using a Shimadzu Nexera XR system and TSQ vantage (Thermo). A Kinetex C18 (2.1 × 100 mm, 2.6 µm, particle size; Phenomenex, USA) was used as the HPLC column, and (A) distilled water containing 0.1% formic acid and (B) acetonitrile containing 0.1% formic acid were used as mobile phases, and a gradient program as shown in Table 6 below was applied.
(§9) The generated metabolites were quantified using MRM (Multiple Reaction Monitoring) quantitative mode, and Xcalibur (version 1.6.1) was used for data analysis. To show the CYP isoenzyme activity inhibitory effect of the novel compounds prepared according to the Examples of the disclosure, the % activity of CYP isoenzymes relative to the control group without compound addition is shown in Table 6 below. Additionally, to confirm the difference in effect according to substituents, Comparative Compounds 1 and 5, which are two compounds that share a similar parent nucleus structure with Compounds 1 to 46 of the disclosure while Cy is substituted with aromatic heteroaryl instead of saturated heterocyclyl, were selected as comparative compounds and their activities are shown together.

[9] = target: T4, CYP2C9 (Homo sapiens, UniProt P11712); test: CYP isoenzyme activity inhibition in human liver microsomes, CYP2C9; format: in vitro ADME; conditions: 10 µM compound; human liver microsomes 0.25 mg/mL; relative to control without compound
T4 construct: human liver microsomes (0.25 mg/mL); from tissue; host or cells: human liver microsomes
T4 sequence (P11712 whole entry): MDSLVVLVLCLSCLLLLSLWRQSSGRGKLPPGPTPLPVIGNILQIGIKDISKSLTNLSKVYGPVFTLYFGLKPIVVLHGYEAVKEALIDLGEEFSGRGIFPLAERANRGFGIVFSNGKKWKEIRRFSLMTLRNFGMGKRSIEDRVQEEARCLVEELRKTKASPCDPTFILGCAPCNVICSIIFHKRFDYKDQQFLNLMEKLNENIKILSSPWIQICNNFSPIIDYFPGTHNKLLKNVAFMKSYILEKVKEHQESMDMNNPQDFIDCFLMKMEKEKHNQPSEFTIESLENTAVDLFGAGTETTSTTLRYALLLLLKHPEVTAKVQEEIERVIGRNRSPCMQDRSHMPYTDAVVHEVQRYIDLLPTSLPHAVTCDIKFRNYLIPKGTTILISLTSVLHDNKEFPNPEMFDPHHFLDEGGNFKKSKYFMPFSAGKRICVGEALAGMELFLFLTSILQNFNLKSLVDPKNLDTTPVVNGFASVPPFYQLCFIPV
Description: as §7, §8, §9

[10] = target: T5, CYP2C19 (Homo sapiens, UniProt P33261); test: CYP isoenzyme activity inhibition in human liver microsomes, CYP2C19; format: in vitro ADME; conditions: 10 µM compound; human liver microsomes 0.25 mg/mL; relative to control without compound
T5 construct: human liver microsomes (0.25 mg/mL); from tissue; host or cells: human liver microsomes
T5 sequence (P33261 whole entry): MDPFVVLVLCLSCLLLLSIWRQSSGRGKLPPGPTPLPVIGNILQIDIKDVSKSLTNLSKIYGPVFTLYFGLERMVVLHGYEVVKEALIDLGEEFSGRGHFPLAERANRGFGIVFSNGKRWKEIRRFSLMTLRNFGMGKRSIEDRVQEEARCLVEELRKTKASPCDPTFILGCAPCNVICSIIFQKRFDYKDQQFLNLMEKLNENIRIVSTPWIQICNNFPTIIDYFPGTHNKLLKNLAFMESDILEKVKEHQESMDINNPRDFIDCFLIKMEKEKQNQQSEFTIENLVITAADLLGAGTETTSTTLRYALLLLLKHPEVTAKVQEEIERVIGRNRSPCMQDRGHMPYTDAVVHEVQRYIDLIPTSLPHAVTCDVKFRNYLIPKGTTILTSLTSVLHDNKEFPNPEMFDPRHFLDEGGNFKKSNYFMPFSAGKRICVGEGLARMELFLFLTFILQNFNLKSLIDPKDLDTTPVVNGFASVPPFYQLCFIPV
Description: as §7, §8, §9

[11] = target: T6, CYP2D6 (Homo sapiens, UniProt P10635); test: CYP isoenzyme activity inhibition in human liver microsomes, CYP2D6; format: in vitro ADME; conditions: 10 µM compound; human liver microsomes 0.25 mg/mL; relative to control without compound
T6 construct: human liver microsomes (0.25 mg/mL); from tissue; host or cells: human liver microsomes
T6 sequence (P10635 whole entry): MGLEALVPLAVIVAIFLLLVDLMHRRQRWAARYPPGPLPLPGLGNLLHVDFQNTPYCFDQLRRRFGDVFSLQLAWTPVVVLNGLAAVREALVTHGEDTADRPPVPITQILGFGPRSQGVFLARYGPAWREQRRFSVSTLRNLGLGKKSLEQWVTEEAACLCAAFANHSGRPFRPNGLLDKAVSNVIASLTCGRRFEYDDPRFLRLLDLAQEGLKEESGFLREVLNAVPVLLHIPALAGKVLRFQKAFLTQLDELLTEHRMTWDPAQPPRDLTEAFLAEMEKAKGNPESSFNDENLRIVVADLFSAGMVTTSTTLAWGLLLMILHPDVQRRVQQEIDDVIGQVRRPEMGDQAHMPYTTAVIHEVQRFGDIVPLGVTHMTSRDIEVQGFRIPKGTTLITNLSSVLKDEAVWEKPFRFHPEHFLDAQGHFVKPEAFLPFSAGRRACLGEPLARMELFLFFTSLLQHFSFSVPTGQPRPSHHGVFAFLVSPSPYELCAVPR
Description: as §7, §8, §9

[12] = target: T7, CYP3A4 (Homo sapiens, UniProt P08684); test: CYP isoenzyme activity inhibition in human liver microsomes, CYP3A4; format: in vitro ADME; conditions: 10 µM compound; human liver microsomes 0.25 mg/mL; relative to control without compound
T7 construct: human liver microsomes (0.25 mg/mL); from tissue; host or cells: human liver microsomes
T7 sequence (P08684 whole entry): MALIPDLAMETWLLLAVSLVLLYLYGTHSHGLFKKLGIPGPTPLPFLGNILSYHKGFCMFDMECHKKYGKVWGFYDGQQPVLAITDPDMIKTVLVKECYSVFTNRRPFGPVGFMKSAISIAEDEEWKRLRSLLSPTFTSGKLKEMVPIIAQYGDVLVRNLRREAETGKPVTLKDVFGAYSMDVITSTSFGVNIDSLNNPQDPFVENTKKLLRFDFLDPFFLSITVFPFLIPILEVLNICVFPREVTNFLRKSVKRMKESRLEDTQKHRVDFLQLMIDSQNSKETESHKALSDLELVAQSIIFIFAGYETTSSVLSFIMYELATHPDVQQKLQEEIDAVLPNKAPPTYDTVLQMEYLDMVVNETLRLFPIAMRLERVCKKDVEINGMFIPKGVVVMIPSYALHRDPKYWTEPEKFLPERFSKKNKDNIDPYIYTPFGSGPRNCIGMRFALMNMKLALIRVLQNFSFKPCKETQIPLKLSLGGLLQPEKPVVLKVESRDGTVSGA
Description: as §7, §8, §9

T1 sequence (P10636 1-441 isoform P10636-8): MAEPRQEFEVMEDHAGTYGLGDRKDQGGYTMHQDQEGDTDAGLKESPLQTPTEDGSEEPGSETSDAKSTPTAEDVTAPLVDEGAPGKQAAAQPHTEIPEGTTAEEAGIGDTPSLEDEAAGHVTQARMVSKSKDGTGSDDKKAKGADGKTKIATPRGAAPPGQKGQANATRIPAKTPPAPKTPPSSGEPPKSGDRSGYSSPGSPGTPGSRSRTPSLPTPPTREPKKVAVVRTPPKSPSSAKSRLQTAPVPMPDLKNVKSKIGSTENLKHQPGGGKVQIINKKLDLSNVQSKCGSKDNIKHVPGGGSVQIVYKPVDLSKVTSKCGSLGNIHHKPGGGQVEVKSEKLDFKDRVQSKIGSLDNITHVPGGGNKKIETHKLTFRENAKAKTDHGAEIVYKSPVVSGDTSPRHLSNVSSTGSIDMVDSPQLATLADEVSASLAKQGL

| Compound | pIC50 [1] | Cell viability (% @10µM) [2] | inhibition at 3 µM [3] | Cell viability (%) (@ 3 uM) [4] | Human microsomes (% remaining) [5] | Rat microsomes (% remaining) [6] | Mouse microsomes (% remaining) [7] | CYP1A2 (% activity) [8] | CYP2C9 (% activity) [9] | CYP2C19 (% activity) [10] | CYP2D6 (% activity) [11] | CYP3A4 (% activity) [12] |
| --- | --- | --- | --- | --- | --- | --- | --- | --- | --- | --- | --- | --- |
| Cc1nc2ccc(NN=C(C#N)C#N)cc2s1 [Comparative compound 1, N-(2-methylbenzo[d]thiazol-6-yl)carbonohydrazonoyl dicyanide, reference compound] | 6.30 | 100% | 72.9% | 79.0% | 37.0 % remaining | 1.2 % remaining | 1.2 % remaining | – | – | – | – | – |
| Cc1ccc(-c2nc3ccc(NN=C(C#N)C#N)cc3s2)cn1 [Comparative compound 6, N-(2-(6-methylpyridin-3-yl)benzo[d]thiazol-6-yl) carbonohydrazonoyl dicyanide, reference compound] | – | – | 69.5% | 60.8% | 84.7 % remaining | 83.9 % remaining | >100 % remaining | 80.2 % activity | 32.0 % activity | 81.2 % activity | 91.8 % activity | 81.7 % activity |
| N#CC(C#N)=NNc1ccc2nc(N3CCOCC3)[nH]c2c1 [Compound 7, (2-morpholino-1H-benzo[d]imidazol-6-yl)carbonohydrazonoyl dicyanide] | 7.19 | 100% | – | – | – | – | – | 57.6 % activity | 67.8 % activity | 95.1 % activity | > 100 % activity | 83.1 % activity |

— patent EP4737445A1, “NOVEL SATURATED HETEROCYCLE-SUBSTITUTED HETEROARYL-CARBONOHYDRAZONOYL DICYANIDE COMPOUND AND USE THEREOF” (Korea Institute of Science and Technology, priority 2023, dated 2025)
